The values below come from patent US20070082910A1, “Specific nad(p)h oxidase inhibitor” (Mitsubishi Pharma Corporation, priority 2003, published 2007).

The test system of one assay is NAD(P)H oxidase. Put plainly: IL-8 production inhibitory effect in HUVEC cultured with 44 mM glucose. The class given is cell-based, human. As to conditions: for IC50: from dose-effect line by least squares; for inhibitory rate (%) of IL-8 production: 8 days. Here is the method:
NAD(P)HOxidase Inhibitory Effect (Method)
44 mM glucose was added to Human Umbilical Vein Endothelial Cells (Bio Whittaker, hereinafter to be indicated as “HUVEC”), and cells were cultured for 8 days. Then, a lysis buffer containing a surfactant, Triton-X Nonidet P-40, was added, and interleukin-8 (hereinafter to be indicated as “IL-8”) in the cell lysate, which had been produced by NAD(P)H oxidase was measured by an enzyme-linked […]. The test compound was added one day before glucose addition.
The inhibitory rate was calculated from the following formula: inhibitory rate (%)=100−[(A−C)/(B−C)]×100
wherein A is IL-8 production of a cell cultured in the presence of 44 mM glucose with addition of the test compound, B is IL-8 production of a cell cultured in the presence of 44 mM glucose without addition of the test compound, and C is IL-8 production of a cell cultured in the absence of 44 mM glucose and the test compound. The IC50 value was calculated from the dose-effect line drawn by the least squares method based on the obtained inhibitory rate.

In assay [1] the test system is NAD(P)H oxidase in diabetic rat aorta. Put plainly: NAD(P)H oxidase activity (superoxide anion production, lucigenin chemiluminescence) in aorta of streptozotocin diabetic rats after oral administration. As to conditions: once a day for 3 days. It is filed as in vivo. The method, then:
Streptozotocin (40 mg/kg) dissolved in 0.05 M citric acid buffer (pH 4.5) was administered into the tail vein of male Wistar rats (Japan SLC) to prepare diabetic rats. At 1 week to 8 weeks from the intravenous injection of streptozotocin, blood was drawn from the tail vein using a capillary treated with heparin, which was immediately cooled with ice and centrifuged at 3000 rpm, 15 min, 4° C. to give serum. The blood glucose level was measured by enzyme assay using a glucose measurement kit “GLU neo sinotest” (sinotest) and a microplate reader (SPECTRA MAX250, Molecular Devices).
The NAD(P)H oxidase activity was measured by the following method, which was modified by the method of the David. G. Harrison et al. (J. Clin. Invest. 91, 2546-2551, 1993), at 4 days from the start of the test, with superoxide anion production in aorta as an index.
To be specific, normal rat or diabetic rat free of the above-mentioned treatment was exsanguinated from the abdominal aorta, their thoracic aorta was removed. The removed thoracic aorta was immersed in Krebs-Hepes buffer and marginal tissues were removed to prepare an about 5 mm ring specimen. This ring specimen was preincubate in Krebs-Hepes buffer at 37° C. for 10 min and transferred to Krebs-Hepes buffer containing 0.25 mM lucigenin (SIGMA). 500 μM NADH (SIGMA) was added and chemiluminescence value (chemiluminescence: unit RLU: relative light units) was measured using a luminometer (MULTI-BIOLUMAT LB9505C, Warrack.Berthold) at 37° C. for 10 min. The total value of chemiluminescence was calculated from the area under the curve (hereinafter to be referred to as “AUC”) drawn by plotting the chemiluminescence value (vertical axis) relative to the measurement time (horizontal axis). The measured total value of chemiluminescence was divided by the wet weight of the vascular ring specimen and standardized to the superoxide anion production per aorta unit weight.
The inhibitory rate (%) was calculated from the following formula: inhibitory rate (%)=100−[(A−C)/(B−C)]×100
wherein A was the standardized value of chemiluminescence of diabetic rat administered with the test compound, B was the standardized value of chemiluminescence of diabetic rat without administration of the test compound, and C was the standardized value of chemiluminescence of normal rat without administration of the test compound.

Another assay deals with leukocyte NADPH oxidase. Put plainly: Effect on leukocyte NADPH oxidase (PMA-stimulated lucigenin chemiluminescence). The class given is cell-based, rat. The method, then:
Blood was drawn from the abdominal aorta of normal male Wister rats (Japan SLC) and immediately mixed with an ice-cold lysis buffer at 42 mL of the buffer per 3 mL of the blood.
After 5 min, the mixture was centrifuged at 4° C., 1100 rpm for 5 min. The precipitate was suspended in an ice-cold Lysis buffer, and centrifuged again at 4° C., 1100 rpm for 5 min. This operation was repeated 3 times to obtain leukocytes. The obtained leukocytes were suspended in Krebs-Hepes buffer and the number of the cells was adjusted to 1×10^6/ml. 0.25 mM Lucigenin and the test agent were added, Phorbol 12-myristate 13-acetate (hereinafter to be indicated as “PMA”, SIGMA) was further added, and the chemiluminescence value was measured at 37° C. for 10 min.
The inhibitory rate (%) was calculated by the following formula: inhibitory rate (%)=100−[(A−C)/(B−C))×[…] wherein A is the total chemiluminescence value of the leukocyte suspension with the addition of the test compound, B is the total chemiluminescence value of the leukocyte suspension (control) without addition of the test compound, and C is the total chemiluminescence value of the leukocyte suspension without stimulation with PMA.

The subject of assay [2] is NAD(P)H oxidase in diabetic rat aorta. Put plainly: Aorta NAD(P)H oxidase inhibitory effect, test compound added to aorta ring specimen in vitro. The class given is biochemical. Here is the method: This ring specimen was preincubated in Krebs-Hepes buffer containing the test compound (compound A, compound B or DPI (SIGMA)) at 37° C. for 10 min, and then transferred to Krebs-Hepes buffer containing 0.25 mM lucigenin. […] The total value of chemiluminescence was calculated from AUC of the curve drawn by plotting the chemiluminescence value (vertical axis) relative to the measurement time (horizontal axis). The obtained chemiluminescence value was divided by the wet weight of the vascular ring specimen and standardized to the superoxide anion production per aorta unit weight.

Where [3] appears, read: test compound concentration 0.01 μM.
The mark [4] stands for this setting: test compound concentration 0.1 μM.
Where [5] appears, read: test compound concentration 1 μM.

As to `N#Cc1nn(-c2ccccc2)c2ccccc2c1=O` [compound F], the concentration for half-maximal inhibition (IC50) – broadly, the concentration that gives 50% inhibition – in the assay with NAD(P)H oxidase was determined as 943 nM. Also, the “inhibitory rate (%) of IL-8 production” value in the assay with NAD(P)H oxidase (setting [3]) was 0%; with NAD(P)H oxidase (setting [4]), 0%; in the assay on NAD(P)H oxidase (setting [5]), 54.5%.
`NC(=O)c1nn(-c2ccccc2)c2ccccc2c1=O` [compound D] showed an IC50 with NAD(P)H oxidase of 11.1 nM. Also, the “inhibitory rate (%) of IL-8 production” value with NAD(P)H oxidase (setting [3]) came out at 45.4%; in the assay on NAD(P)H oxidase (setting [4]), 98.3%; with NAD(P)H oxidase (setting [5]), 100%. For the same compound, the “inhibitory rate (%), NAD(P)H oxidase in diabetic rat aorta” value is recorded as 44% in assay [1] (0.01 mg/kg oral) and 72% in assay [1] (0.1 mg/kg oral).
Turning to `Cc1cc(C)n(-c2nnc(-c3ccccc3)c3ccccc23)n1` [compound H], half-maximal inhibition in the assay with NAD(P)H oxidase (IC50) required 69 nM. Moreover, the “inhibitory rate (%) of IL-8 production” value with NAD(P)H oxidase (setting [3]) was determined as 27.6%; with NAD(P)H oxidase (setting [4]) it was 49.9%; in the assay with NAD(P)H oxidase (setting [5]), 83.0%.
Compound `CCOC(=O)c1nn(-c2ccccc2)c2ccccc2c1=O` [compound E] gave an IC50 in the assay with NAD(P)H oxidase of under 10 nM. The “inhibitory rate (%) of IL-8 production” value with NAD(P)H oxidase (setting [3]) was determined as 96.3%; in the assay on NAD(P)H oxidase (setting [5]), 91.0%.
In the assay with NAD(P)H oxidase, `N/C(=N\O)c1nn(-c2ccccc2)c2ccccc2c1=O` [compound G] returned a half-inhibitory concentration (IC50) of 219 nM. The “inhibitory rate (%) of IL-8 production” value worked out at 39.7% in the assay with NAD(P)H oxidase (setting [3]), 43.9% in the assay on NAD(P)H oxidase (setting [4]) and 57.4% in the assay on NAD(P)H oxidase (setting [5]).
With `c1ccc2c(c1)[I+]c1ccccc1-2` [DPI, diphenyleneiodonium, reference compound], the “inhibitory rate (%), leukocyte NADPH oxidase” value with leukocyte NADPH oxidase (200 μg/mL, PMA-stimulated rat leukocytes, mean ± standard error) came out at 106.7 ± 0.2%. For the same compound, the “inhibitory effect on leukocyte NADPH oxidase” value in the assay on leukocyte NADPH oxidase (result in words) is reported as “showed an inhibitory effect on leukocyte NADPH oxidase”. In addition, the “inhibitory rate (%)” value in assay [2] (200 μM added to aorta ring in vitro) is 45.1%. Besides, the “chemiluminescence (×10^5 RLU/wet weight of aorta)” value in assay [2] (200 μM added to aorta ring in vitro, mean ± standard error) was 5.2 ± 1.1 ×10^5 RLU/wet weight of aorta. Also, the “NAD(P)H oxidase inhibitory effect on aorta ring in vitro” value in assay [2] (result in words) was “showed an NAD(P)H oxidase inhibitory effect”.
Turning to `O=C(O)c1nn(-c2ccccc2)c2ccccc2c1=O` [compound C], half-maximal inhibition in the assay with NAD(P)H oxidase (IC50) required 15.4 nM. Moreover, the “inhibitory rate (%) of IL-8 production” value with NAD(P)H oxidase (setting [3]) is recorded as −2.5%; in the assay with NAD(P)H oxidase (setting [4]), 53.7%; with NAD(P)H oxidase (setting [5]) it was 97.7%. Also, the results for the “inhibitory rate (%), NAD(P)H oxidase in diabetic rat aorta” value in assay [1] (0.01 mg/kg oral) and in assay [1] (0.1 mg/kg oral) were 45% and 90%, respectively.
